Reference: patent publication US20210071229A1, “FIBRINOGEN TEST” (DSM IP Assets B.V., priority 2018, published 2021)
Several values for one entry are separate records, joined by “and”; a condition that tells them apart may be missing. Equal values may be shown once. Read-outs that look alike come from different tables or passages of the source.

Assays:
batroxobin = batroxobin (Bothrops atrox, UniProt P04971); type: biochemical, Bothrops moojeni
control plasma [1] = assay: activated Partial Thromboplastin Time (aPTT) clotting test, spiked control plasma, BCS-XP; type: biochemical
control plasma [2] = test system: control plasma

Chain of batroxobin (P04971 25-255 limits assumed): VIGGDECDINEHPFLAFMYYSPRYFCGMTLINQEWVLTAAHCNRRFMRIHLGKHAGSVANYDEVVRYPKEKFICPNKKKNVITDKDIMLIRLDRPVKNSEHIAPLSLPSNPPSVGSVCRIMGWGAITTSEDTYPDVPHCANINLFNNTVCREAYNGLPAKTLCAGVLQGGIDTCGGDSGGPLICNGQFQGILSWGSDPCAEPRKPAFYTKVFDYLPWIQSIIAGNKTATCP

Q: With O=C(O)CN(CCN(CC(=O)O)CC(=O)O)CC(=O)O [EDTA] as the compound, how does the “interference in batroxobin-Pefachrome TH reaction” value (from here on “interference”) (batroxobin) read?
A: failed to see significant interference

Q: With aprotinin as the compound, how does the “effect on enzyme activity of batroxobin vs untreated control” value (batroxobin) read?
A: did not significantly influence the activity

Q: And the “predicted Vmax and Km vs untreated control” value (batroxobin)?
A: not significantly different

Q: How did the “effect on Vmax of batroxobin-Pefachrome TH substrate” value (batroxobin) turn out when CC1CNc2c(cccc2S(=O)(=O)N[C@@H](CCCNC(=N)N)C(=O)N2CC[C@@H](C)C[C@@H]2C(=O)O)C1 (some centres unmarked) [Argatroban] was run?
A: very slight reduction

Q: What about the “effect on enzyme activity of batroxobin” value (batroxobin) of the same compound?
A: did not significantly suppress

Q: And the “effect on Km of batroxobin-Pefachrome TH substrate” value (shortened to “effect on Km”) (batroxobin; 0.13-2.0 μg/mL)?
A: not significantly affected

Q: And the “aPTT-test CT” value (control plasma [1]; 0.13 μg/ml in plasma)?
A: 34.62 s

Q: What about the “aPTT-test Mean” value (control plasma [1]; 0.13 μg/ml in plasma) of the same compound?
A: 34.62 s

Q: And the aPTT-test delay (control plasma [1]; 0.13 μg/ml in plasma)?
A: 8%

Q: What about the “aPTT-test CT” value (control plasma [1]; 2.0 μg/ml in plasma) of the same compound?
A: 55.77 s and 55.46 s

Q: What about the “aPTT-test Mean” value (control plasma [1]; 2.0 μg/ml in plasma) of the same compound?
A: 55.62 s

Q: And the aPTT-test delay (control plasma [1]; 2.0 μg/ml in plasma)?
A: 73%

Q: And the “PT-test CT” value (control plasma [2]; 0.13 μg/ml in plasma)?
A: 10.18 s and 10.21 s

Q: What about the “PT-test Mean” value (control plasma [2]; 0.13 μg/ml in plasma) of the same compound?
A: 10.20 s

Q: What about the PT-test delay (control plasma [2]; 0.13 μg/ml in plasma) of the same compound?
A: 1%

Q: And the “PT-test CT” value (control plasma [2]; 2.0 μg/ml in plasma)?
A: 12.26 s and 12.24 s

Q: And the “PT-test Mean” value (control plasma [2]; 2.0 μg/ml in plasma)?
A: 12.25 s

Q: And the PT-test delay (control plasma [2]; 2.0 μg/ml in plasma)?
A: 22%

Q: Which “interference” value (batroxobin) does the source give for hydroxyethyl starch [HES] here?
A: failed to see significant interference

Q: hirudin was tested. Which “interference” value (batroxobin) did it give?
A: failed to see significant interference

Q: With NCCCCCC(=O)O [6-aminocaproic acid] as the compound, how does the “effect on enzyme activity of batroxobin vs untreated control” value (batroxobin) read?
A: did not significantly influence the activity

Q: And the “predicted Vmax and Km vs untreated control” value (batroxobin)?
A: not significantly different

Q: How did the “effect on Km” value (batroxobin; 31-500 ng/mL) turn out when [H]/N=C(/N)c1ccc(NCc2nc3cc(C(=O)N(CCC(=O)O)c4ccccn4)ccc3n2C)cc1 [Dabigatran] was run?
A: not significantly affected

Q: Which “effect on Vmax of batroxobin-Pefachrome TH substrate” value (batroxobin) does the source give for O=C(NC[C@H]1CN(c2ccc(N3CCOCC3=O)cc2)C(=O)O1)c1ccc(Cl)s1 [Rivaroxaban] here?
A: very slight reduction

Q: What about the “effect on enzyme activity of batroxobin” value (batroxobin) of the same compound?
A: did not significantly suppress

Q: And the “effect on Km” value (batroxobin; 38-600 ng/mL)?
A: not significantly affected

Q: And the “aPTT-test CT” value (control plasma [1]; 38 ng/ml in plasma)?
A: 39.46 s and 39.44 s

Q: And the “aPTT-test Mean” value (control plasma [1]; 38 ng/ml in plasma)?
A: 39.45 s

Q: And the aPTT-test delay (control plasma [1]; 38 ng/ml in plasma)?
A: 23%

Q: And the “aPTT-test CT” value (control plasma [1]; 600 ng/ml in plasma)?
A: 80.73 s and 80.07 s

Q: And the “aPTT-test Mean” value (control plasma [1]; 600 ng/ml in plasma)?
A: 80.40 s

Q: And the aPTT-test delay (control plasma [1]; 600 ng/ml in plasma)?
A: 150%

Q: What about the “PT-test CT” value (control plasma [2]; 38 ng/ml in plasma) of the same compound?
A: 10.74 s and 10.61 s

Q: What about the “PT-test Mean” value (control plasma [2]; 38 ng/ml in plasma) of the same compound?
A: 10.68 s

Q: What about the PT-test delay (control plasma [2]; 38 ng/ml in plasma) of the same compound?
A: 6%

Q: What about the “PT-test CT” value (control plasma [2]; 600 ng/ml in plasma) of the same compound?
A: 19.42 s and 19.32 s

Q: What about the “PT-test Mean” value (control plasma [2]; 600 ng/ml in plasma) of the same compound?
A: 19.37 s

Q: What about the PT-test delay (control plasma [2]; 600 ng/ml in plasma) of the same compound?
A: 92%
